Test systems include IGROV1 ovarian; M14 melanoma; SW-620 colon; NCI-H460 lung; UO-31 renal; K-562 leukemia; U251 CNS; SF-295 CNS; PC-3 prostate; MCF7 breast.
Holding throughout (assay): NCI-60 cell line screen, 48 h

“And” between values parts separate entries of the source, which are not always exact repeats. Equal values may be shown once.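 Results reflect a 48-hour exposure of cells in 96-well plates to compound at five concentrations. GI50 = concentration required for 50% inhibition of growth. At the TGI there is no net growth.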

In the case of `Cc1cccc2c(=O)c3cccc([C@H](C)C(=O)O)c3oc12`, the TGI in the assay with IGROV1 ovarian, with M14 melanoma, in the assay with SW-620 colon, with NCI-H460 lung, in the assay on UO-31 renal and in the assay on K-562 leukemia was greater than 100 µM throughout. Besides, the TGI in the assay with U251 CNS, in the assay with SF-295 CNS and in the assay with PC-3 prostate was greater than 100 µM in each case.

With `COc1ccc2[nH]c3ccc4cc[n+](CCN5CCC(C6CCN(CC[n+]7ccc8ccc9[nH]c%10ccc(OC)cc%10c9c8c7)CC6)CC5)cc4c3c2c1`, the GI50 in the assay on IGROV1 ovarian is 0.269 µM; in the assay with MCF7 breast it was 0.313 µM and 0.488 µM; in the assay with UO-31 renal, 42.5 µM; in the assay with K-562 leukemia it was 0.164 µM; with U251 CNS it was greater than 50 µM; with SF-295 CNS, 34.5 µM. The TGI in the assay on IGROV1 ovarian was 50 µM and > 19 µM; in the assay on M14 melanoma, greater than 50 µM; in the assay on SW-620 colon, greater than 36.9 µM; in the assay with MCF7 breast it was 50 µM and > 28.3 µM; in the assay on UO-31 renal, 50 µM and > 100 µM; in the assay with K-562 leukemia it was 1.41 µM and 7.67 µM. The TGI in the assay with U251 CNS was greater than 52.3 µM; in the assay with SF-295 CNS, 44.8 µM and 42.2 µM; in the assay with PC-3 prostate, 50 µM.

Turning to `COc1ccc(C2CC(c3sc(Nc4ccc(C)cc4)nc3C)=NN2)cc1` (stereo unspecified), the TGI in the assay with IGROV1 ovarian is greater than 56.9 µM; in the assay on SW-620 colon, 38.2 µM; in the assay with MCF7 breast it was 31.7 µM; in the assay on NCI-H460 lung, 30.3 µM; with UO-31 renal, 29.4 µM; with K-562 leukemia, 39.1 µM. Also, the TGI with U251 CNS came out at 28.4 µM; with SF-295 CNS it was 30.5 µM.

Regarding `O=c1cc(NNc2ccccc2)[nH]c(=O)[nH]1`, the TGI is greater than 100 µM with IGROV1 ovarian; 26.3 µM in the assay with MCF7 breast; 98.9 µM in the assay with NCI-H460 lung; 91.1 µM in the assay on K-562 leukemia; 31.9 µM in the assay with U251 CNS; greater than 100 µM with SF-295 CNS. Also, the TGI with PC-3 prostate was determined as 36.3 µM.

Take `CN(C)CCNC(=O)c1cccc2c1C(=O)c1ccccc1C2=O`: the TGI with IGROV1 ovarian was greater than 76.5 µM; with SW-620 colon, greater than 91.3 µM; with MCF7 breast it was greater than 79 µM; in the assay on NCI-H460 lung it was 85.8 µM; with UO-31 renal, greater than 100 µM; in the assay with K-562 leukemia it was 54.5 µM. In addition, the TGI in the assay with U251 CNS and in the assay on SF-295 CNS was greater than 100 µM throughout.

For the compound `Nc1nnc(N)n1N`, the TGI in the assay with IGROV1 ovarian, with M14 melanoma, in the assay with SW-620 colon, in the assay with NCI-H460 lung, with UO-31 renal and in the assay on K-562 leukemia was greater than 100 µM throughout. Besides, the TGI in the assay with U251 CNS and in the assay on SF-295 CNS was greater than 100 µM throughout.

In the case of `CC1=C(C)C(=O)OC(C(C)(O)C2(O)CC3OC34C3CC(O)C56OC5C=CC(=O)C6(C)C3CCC42C)C1` (stereo unspecified), the TGI in the assay with IGROV1 ovarian was 6.09 µM; in the assay on M14 melanoma it was 12.6 µM; with MCF7 breast it was greater than 39.3 µM; in the assay on NCI-H460 lung, 4.23 µM; in the assay on UO-31 renal, 2.62 µM; in the assay with K-562 leukemia, greater than 100 µM. In addition, the TGI in the assay on U251 CNS was 7.34 µM; in the assay on SF-295 CNS, 15.2 µM; in the assay with PC-3 prostate it was 14.2 µM.

On to `CC(C)CC1c2[nH]c3ccccc3c2C[C@H]2C(=O)NC(Cc3c[nH]c4ccccc34)C(=O)N12` (stereo partly specified), for which the TGI in the assay with IGROV1 ovarian was 36 µM; with M14 melanoma, 29 µM; in the assay with SW-620 colon, 58.5 µM; in the assay with MCF7 breast, greater than 100 µM; in the assay with UO-31 renal, 42.9 µM; in the assay with K-562 leukemia it was 61.5 µM. Also, the TGI was determined as 28.4 µM in the assay on U251 CNS, 43.8 µM in the assay on SF-295 CNS and 41.9 µM with PC-3 prostate.

On to `C/C(Cc1ccc2c(c1)OCO2)=N\N=c1\sc2ccccc2n1C`, for which the TGI in the assay with IGROV1 ovarian, in the assay with M14 melanoma, in the assay on SW-620 colon, in the assay on MCF7 breast, in the assay with UO-31 renal and with K-562 leukemia was greater than 100 µM each time. Also, the TGI with U251 CNS, in the assay with SF-295 CNS and with PC-3 prostate was greater than 100 µM throughout.

Take `O=[N+]([O-])c1ccc(C[P+]2(c3ccccc3)CCCCC2)cc1` (tested in a mixture with another compound): the TGI with IGROV1 ovarian, with M14 melanoma, in the assay with SW-620 colon, in the assay on NCI-H460 lung, in the assay with UO-31 renal and with K-562 leukemia was greater than 100 µM in each case. For the same compound, the TGI in the assay on U251 CNS and in the assay on SF-295 CNS was greater than 100 µM each time.

On to `O=C(N/N=C\c1ccc(Cl)cc1)Nc1ccc2ccccc2c1`, for which the TGI with IGROV1 ovarian, with M14 melanoma, in the assay on SW-620 colon, in the assay with MCF7 breast, in the assay on NCI-H460 lung and in the assay with UO-31 renal was greater than 100 µM each time. For the same compound, the TGI is greater than 100 µM in the assay with K-562 leukemia, 63.5 µM in the assay on U251 CNS and greater than 100 µM with PC-3 prostate.

On to `O=C(O)c1ccc2c(O)c(O)ccc2c1`, for which the TGI in the assay on IGROV1 ovarian is 38.2 µM; in the assay with M14 melanoma, 61.8 µM; in the assay on SW-620 colon, greater than 100 µM; with MCF7 breast, greater than 100 µM; with UO-31 renal, 41.4 µM; with K-562 leukemia, greater than 63.6 µM. Besides, the TGI with U251 CNS is 45.6 µM; with SF-295 CNS it was 33.5 µM; in the assay on PC-3 prostate, greater than 78.8 µM.

Turning to `O=C(CC(C(=O)c1ccsc1)c1cccs1)c1ccccc1` (stereo unspecified), the TGI in the assay with IGROV1 ovarian was greater than 100 µM; with M14 melanoma, greater than 100 µM; in the assay with SW-620 colon, greater than 100 µM; with MCF7 breast, greater than 100 µM; in the assay with NCI-H460 lung, greater than 100 µM; in the assay on UO-31 renal it was 76.3 µM. For the same compound, the TGI in the assay on K-562 leukemia, in the assay with U251 CNS and in the assay on SF-295 CNS was greater than 100 µM throughout.

Regarding `O=C(Cn1c2ccc(Br)cc2c2nc3ccccc3nc21)NCc1ccccc1`, the TGI in the assay with IGROV1 ovarian, with M14 melanoma, in the assay on SW-620 colon, in the assay with NCI-H460 lung, in the assay with UO-31 renal and in the assay on K-562 leukemia was greater than 100 µM each time. Besides, the figures for the TGI with U251 CNS, in the assay with SF-295 CNS and with PC-3 prostate were 69.7 µM, greater than 100 µM and greater than 100 µM, respectively.

(Values after PubChem BioAssay (NCI).)
